In publication PMC7493195 (Journal of medicinal chemistry, 2020):

Assays:
[1] = system: MDA-MB-231, H1975 and HCC827 cells; settings: 72 h, three cell lines
FGFR1 = FGFR1 (Homo sapiens, UniProt P11362); test: Z’LYTE / LanthaScreen kinase assay; type: biochemical
MEK1/2 and ERK1/2 = test: Cellular target engagement, TL13–68 competition pulldown, MEK1/2 and ERK1/2; type: cell-based; settings: H1975 and HCC827 cells, 1 μM, 2 h
p-SRC^Y416 [2] = settings: 3 doses of 5 mg/kg IP, 2 and 4 h after last dose
p-SRC^Y416 [3] = settings: H1975, 1 μM, 2 h, then 0, 2, 4 h postwashout
p-SRC^Y416 [4] = settings: H1975 and HCC827 cells, 1 μM, 2 h
[5] = Stability in mouse liver microsomes; type: in vitro ADME
SRC = SRC (Homo sapiens, UniProt P12931); test: Z’LYTE / LanthaScreen kinase assay; type: biochemical
Chain of SRC (P12931 whole entry): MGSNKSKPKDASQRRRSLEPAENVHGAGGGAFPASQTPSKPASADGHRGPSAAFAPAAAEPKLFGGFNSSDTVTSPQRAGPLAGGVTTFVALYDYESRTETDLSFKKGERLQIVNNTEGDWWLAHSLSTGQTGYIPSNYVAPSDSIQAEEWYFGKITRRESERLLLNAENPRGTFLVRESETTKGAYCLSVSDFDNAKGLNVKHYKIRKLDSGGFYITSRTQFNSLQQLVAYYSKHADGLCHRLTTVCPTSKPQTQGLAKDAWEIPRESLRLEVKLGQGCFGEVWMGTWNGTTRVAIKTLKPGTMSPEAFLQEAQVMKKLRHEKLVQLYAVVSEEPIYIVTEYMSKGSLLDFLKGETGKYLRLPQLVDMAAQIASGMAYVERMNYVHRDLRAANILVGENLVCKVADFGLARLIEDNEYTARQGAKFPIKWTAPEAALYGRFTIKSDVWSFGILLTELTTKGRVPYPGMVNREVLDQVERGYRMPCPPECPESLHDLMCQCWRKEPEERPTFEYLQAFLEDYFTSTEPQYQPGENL

[6] = system: panel of 468 human kinases; settings: 1 μM, 468 kinases, cited from earlier work
kinases = settings: cited from earlier work

Chain of FGFR1 (P11362 22-822): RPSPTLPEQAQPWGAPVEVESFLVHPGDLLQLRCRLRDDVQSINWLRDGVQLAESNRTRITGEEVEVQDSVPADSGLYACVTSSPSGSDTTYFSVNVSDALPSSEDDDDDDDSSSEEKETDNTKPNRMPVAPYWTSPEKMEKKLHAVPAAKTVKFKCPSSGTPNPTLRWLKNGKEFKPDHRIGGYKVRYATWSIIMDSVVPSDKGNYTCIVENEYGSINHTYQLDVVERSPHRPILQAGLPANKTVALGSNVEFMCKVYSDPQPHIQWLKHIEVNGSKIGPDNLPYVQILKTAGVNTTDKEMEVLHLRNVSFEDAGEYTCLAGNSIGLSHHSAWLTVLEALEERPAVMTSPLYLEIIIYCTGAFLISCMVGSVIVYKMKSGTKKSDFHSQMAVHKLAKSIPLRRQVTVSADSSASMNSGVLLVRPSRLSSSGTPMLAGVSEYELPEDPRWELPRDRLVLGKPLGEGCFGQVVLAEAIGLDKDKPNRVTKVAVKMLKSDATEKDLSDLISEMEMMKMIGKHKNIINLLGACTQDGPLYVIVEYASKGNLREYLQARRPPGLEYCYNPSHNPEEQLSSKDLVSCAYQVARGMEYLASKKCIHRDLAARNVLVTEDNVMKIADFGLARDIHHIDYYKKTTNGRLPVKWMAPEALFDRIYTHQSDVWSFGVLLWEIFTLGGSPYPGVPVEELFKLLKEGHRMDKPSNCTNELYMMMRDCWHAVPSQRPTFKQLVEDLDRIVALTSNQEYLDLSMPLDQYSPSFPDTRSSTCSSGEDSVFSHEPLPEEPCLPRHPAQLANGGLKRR

CN1CCN(CCOc2cc(OC3CCOCC3)c3c(Nc4c(Cl)ccc5c4OCO5)ncnc3c2)CC1 [AZD0530]
growth inhibitory potency, in words [1]: weaker potency compared to 15a

C=CC(=O)Nc1ccccc1Nc1nc(Nc2ccc(N3CCN(C)CC3)cc2)ncc1OCc1ccc(Oc2ccccc2)cc1 [Compound 10c, N-(2-((2-((4-(4-Methylpiperazin-1-yl)phenyl)amino)-5-((4-phenoxybenzyl)oxy)pyrimidin-4-yl)amino)phenyl)acrylamide]
loss of activity on FGFR1 compared to SM1–71 (FGFR1): 20 fold

C=CC(=O)Nc1ccccc1Nc1nc(Nc2ccc(N3CCN(C)CC3)cc2)ncc1C(=O)Nc1c(C)cccc1Cl [Compound 15a, 4-((2-Acrylamidophenyl)amino)-N-(2-chloro-6-methylphenyl)-2-((4-(4-methylpiperazin-1-yl)phenyl)amino)pyrimidine-5-carboxamide]
cellular engagement of MEK1/2 or ERK1/2 (MEK1/2 and ERK1/2): did not engage | inhibition of p-SRC^Y416 in spleen (p-SRC^Y416 [2]): inhibition of p-SRC^Y416 at 2 and 4 h postdosing | inhibition of p-SRC^Y416 signaling after washout (p-SRC^Y416 [3]): potent and sustained inhibition of p-SRC^Y416 signaling up to 4 h postwashout | inhibition of p-SRC^Y416 signaling (p-SRC^Y416 [4]): inhibited p-SRC^Y416 signaling | half-life [5]: 5.2 min

C=CC(=O)Nc1ccccc1Nc1nc(Nc2ccc(N3CCN(C)CC3)cc2)ncc1C(=O)Nc1ccc(Oc2ccccc2)cc1 [Compound 15i, 4-((2-Acrylamidophenyl)amino)-2-((4-(4-methylpiperazin-1-yl)-phenyl)amino)-N-(4-phenoxyphenyl)pyrimidine-5-carboxamide]
activity on FGFR1, in words (FGFR1): complete loss of activity | activity on SRC, in words (SRC): complete loss of activity

C=CC(=O)Nc1ccccc1Nc1nc(Nc2ccc(N3CCC(N4CCN(C)CC4)CC3)cc2)ncc1C(=O)Nc1c(C)cccc1Cl [Compound 17c, 4-((2-Acrylamidophenyl)amino)-N-(2-chloro-6-methylphenyl)-2-((4-(4-(4-methylpiperazin-1-yl)piperidin-1-yl)phenyl)amino)-pyrimidine-5-carboxamide]
activity on SRC, in words (SRC): loss of binding

C=CC(=O)Nc1ccccc1Nc1nc(Nc2ccc(N3CCN(C)CC3)cc2)ncc1Cl [SM1–71]
selectivity score S(35) ([6]; specified percent inhibition 35%): 0.43 | number of kinases hit [6]: more than 100 kinases

COc1cc(Nc2c(C#N)cnc3cc(OCCCN4CCN(C)CC4)c(OC)cc23)c(Cl)cc1Cl [bosutinib]
number of kinases inhibited (kinases): > 45 kinases

Cc1nc(Nc2ncc(C(=O)Nc3c(C)cccc3Cl)s2)cc(N2CCN(CCO)CC2)n1 [dasatinib]
number of kinases inhibited (kinases): > 30 kinases
